One assay addresses DDR1 (Homo sapiens (Human), UniProt Q08345). The assay is described as follows: DDR1 binding assay (LanthaScreen Europium Kinase Binding assay). Particulars: 5 nM DDR1, 20 nM Kinase Tracer 178, 1 h at rt; Ki from IC50 by Cheng-Prusoff; read-out: Ki DDR1. The procedure:
(§1) DDR1 and DDR2 binding assays were performed using Life Technologies LanthaScreen™ Europium Kinase Binding assay. The compounds were incubated with 5 nM DDR1 (Carna Biosciences) or 5 nM DDR2 (Life Technologies) for 1 h at rt in white 384-well OptiPlate (PerkinElmer), containing 20 nM or 10 nM Kinase Tracer 178 respectively and 2 nM Europium labelled anti-GST antibody (Life Technologies) in assay buffer (50 mM HEPES pH 7.5, 10 mM MgCI2, 1 mM EGTA and 0.01% BRIJ35). The ratio of fluorescence emission 665 nm/615 nm after excitation at 340 nm was obtained using the Tecan Spark 20M plate reader. IC50 values were determined in GraphPad Prism 7.0 software, using 4 parameter model: log(inhibitor) vs. response. IC50 values were converted in Ki using the Cheng-Prusoff equation (Ki=IC50/(1+[Tracer]/Kd).

For another assay, the target named is DDR2 (Homo sapiens (Human), UniProt Q16832). As to the kind of experiment: DDR2 binding assay (LanthaScreen Europium Kinase Binding assay). The note with it: 5 nM DDR2, 10 nM Kinase Tracer 178, 1 h at rt; Ki from IC50 by Cheng-Prusoff; read-out: Ki DDR2. The procedure:
as §1
For orientation: In TR-FRET formats the signal depends on donor and acceptor labels being close together.

Each structure is given as a SMILES string. Some results are limits rather than exact numbers.

Chain of DDR2 (Q16832 22-855): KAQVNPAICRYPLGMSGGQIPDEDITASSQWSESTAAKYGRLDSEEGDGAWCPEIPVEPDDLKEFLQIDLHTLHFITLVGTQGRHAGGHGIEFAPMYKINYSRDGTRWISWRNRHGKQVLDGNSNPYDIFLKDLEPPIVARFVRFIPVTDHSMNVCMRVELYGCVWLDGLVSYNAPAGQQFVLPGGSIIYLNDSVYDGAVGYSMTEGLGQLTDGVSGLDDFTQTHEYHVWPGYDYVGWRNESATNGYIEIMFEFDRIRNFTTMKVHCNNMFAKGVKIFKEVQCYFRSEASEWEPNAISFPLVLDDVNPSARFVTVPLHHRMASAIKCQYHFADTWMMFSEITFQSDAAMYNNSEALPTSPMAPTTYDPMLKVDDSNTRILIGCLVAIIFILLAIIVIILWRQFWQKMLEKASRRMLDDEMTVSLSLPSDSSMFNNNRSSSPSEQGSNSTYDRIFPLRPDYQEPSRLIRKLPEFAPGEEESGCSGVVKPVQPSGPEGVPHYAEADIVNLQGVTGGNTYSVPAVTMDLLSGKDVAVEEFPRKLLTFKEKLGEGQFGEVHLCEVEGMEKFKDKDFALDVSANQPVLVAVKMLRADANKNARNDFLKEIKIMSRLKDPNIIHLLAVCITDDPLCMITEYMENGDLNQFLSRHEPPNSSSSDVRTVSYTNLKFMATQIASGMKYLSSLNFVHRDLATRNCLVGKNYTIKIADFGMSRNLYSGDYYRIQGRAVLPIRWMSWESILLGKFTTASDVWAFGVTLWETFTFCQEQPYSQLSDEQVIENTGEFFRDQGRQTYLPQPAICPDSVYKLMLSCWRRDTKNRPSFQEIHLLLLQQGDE
Chain of DDR1 (Q08345 19-913): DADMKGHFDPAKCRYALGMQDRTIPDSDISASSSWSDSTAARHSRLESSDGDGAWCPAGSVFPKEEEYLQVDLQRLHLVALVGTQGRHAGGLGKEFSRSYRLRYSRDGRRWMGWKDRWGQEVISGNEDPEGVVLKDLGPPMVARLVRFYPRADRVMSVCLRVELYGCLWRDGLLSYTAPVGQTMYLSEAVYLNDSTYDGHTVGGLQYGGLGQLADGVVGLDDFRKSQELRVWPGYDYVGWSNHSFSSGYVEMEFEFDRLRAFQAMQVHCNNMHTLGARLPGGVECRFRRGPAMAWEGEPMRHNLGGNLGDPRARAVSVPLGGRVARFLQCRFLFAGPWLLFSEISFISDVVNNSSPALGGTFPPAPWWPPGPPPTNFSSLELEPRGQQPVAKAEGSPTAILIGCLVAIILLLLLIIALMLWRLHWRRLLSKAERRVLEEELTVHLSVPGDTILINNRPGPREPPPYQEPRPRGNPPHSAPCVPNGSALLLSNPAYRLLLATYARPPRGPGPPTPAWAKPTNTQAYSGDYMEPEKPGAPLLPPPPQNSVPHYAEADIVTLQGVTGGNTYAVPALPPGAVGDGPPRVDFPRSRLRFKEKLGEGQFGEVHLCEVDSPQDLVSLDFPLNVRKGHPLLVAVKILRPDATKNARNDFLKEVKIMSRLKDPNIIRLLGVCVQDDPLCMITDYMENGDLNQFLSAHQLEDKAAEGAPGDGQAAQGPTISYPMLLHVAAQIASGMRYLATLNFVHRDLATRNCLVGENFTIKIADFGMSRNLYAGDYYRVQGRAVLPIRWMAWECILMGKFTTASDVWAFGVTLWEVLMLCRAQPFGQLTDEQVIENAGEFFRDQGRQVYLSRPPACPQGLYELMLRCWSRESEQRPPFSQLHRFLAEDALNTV

Take `Cc1ccc(C(=O)Nc2cncc(OC(F)(F)F)c2)cc1OC1CN(c2cnn3ccncc23)C1` [Example 157, 4-methyl-3-((1-(pyrazolo[1,5-a]pyrazin-3-yl)azetidin-3-yl)oxy)-N-(5-(trifluoromethoxy)pyridin-3-yl)benzamide]: the Ki at DDR1 and on DDR2 was below 5 nM in each case.
With `COc1ccc(OC(F)(F)F)cc1NC(=O)c1ccc(C)c(OC2CN(c3cnn4ccncc34)C2)c1` [Example 158, N-(2-methoxy-5-(trifluoromethoxy)phenyl)-4-methyl-3-((1-(pyrazolo[1,5-a]pyrazin-3-yl)azetidin-3-yl)oxy)benzamide], the inhibition constant Ki (commonly a measure of affinity in units of concentration, obtained from inhibition or displacement) was below 5 nM on DDR1 and 5 to 25 nM on DDR2.
On to `Cc1ccc(OC(F)(F)F)cc1NC(=O)c1ccc(C)c(OC2CN(c3cnn4ccncc34)C2)c1` [Example 159, 4-methyl-N-(2-methyl-5-(trifluoromethoxy)phenyl)-3-((1-(pyrazolo[1,5-a]pyrazin-3-yl)azetidin-3-yl)oxy)benzamide], for which the Ki at DDR1 was below 5 nM; on DDR2, 5 to 25 nM.
Regarding `Cc1ccc(C(=O)Nc2cc(C(F)(F)F)ccc2Cl)cc1OC1CN(c2cnn3ccncc23)C1` [Example 160, N-(2-chloro-5-(trifluoromethyl)phenyl)-4-methyl-3-((1-(pyrazolo[1,5-a]pyrazin-3-yl)azetidin-3-yl)oxy)benzamide], the inhibitory constant (Ki) is below 5 nM on DDR1 and 5 to 25 nM at DDR2.
In the same order, the values of `Cc1ccc(C(=O)Nc2cccc(OC(F)(F)F)c2)cc1OC1CN(c2cnn3ccncc23)C1` [Example 161, 4-methyl-3-((1-(pyrazolo[1,5-a]pyrazin-3-yl)azetidin-3-yl)oxy)-N-(3-(trifluoromethoxy)phenyl)benzamide] are below 5 nM and below 5 nM.
As for `Cc1ccc(C(=O)Nc2cc(F)cc(C(F)(F)F)c2)cc1OC1CN(c2cnn3ccncc23)C1` [Example 162, N-(3-fluoro-5-(trifluoromethyl)phenyl)-4-methyl-3-((1-(pyrazolo[1,5-a]pyrazin-3-yl)azetidin-3-yl)oxy)benzamide], the Ki at DDR1 and on DDR2 was below 5 nM in each case.
For the molecule `Cc1ccc(C(=O)Nc2cc(C(C)(C)C)nn2C)cc1OC1CN(c2cnn3ccncc23)C1` [Example 163, N-(3-(tert-butyl)-1-methyl-1H-pyrazol-5-yl)-4-methyl-3-((1-(pyrazolo[1,5-a]pyrazin-3-yl)azetidin-3-yl)oxy)benzamide], the Ki on DDR1 and on DDR2 was 5 to 25 nM throughout.
With `Cc1ccc(C(=O)Nc2cccc(CC(F)(F)F)c2)cc1OC1CN(c2cnn3ccncc23)C1` [Example 164, 4-methyl-3-((1-(pyrazolo[1,5-a]pyrazin-3-yl)azetidin-3-yl)oxy)-N-(3-(2,2,2-trifluoroethyl)phenyl)benzamide], the Ki at DDR1 and on DDR2 was below 5 nM each time.
Take `Cc1ccc(C(=O)Nc2cncc(C(F)(F)F)c2)cc1OC1CN(c2cncc(C(F)F)c2)C1` [Example 165, 3-((1-(5-(difluoromethyl)pyridin-3-yl)azetidin-3-yl)oxy)-4-methyl-N-(5-(trifluoromethyl)pyridin-3-yl)benzamide]: the values for the Ki at DDR1 and at DDR2 were below 5 nM and 5 to 25 nM, respectively.
Turning to `Cc1ccc(C(=O)Nc2cncc(C(F)(F)F)c2)cc1OC1CN(c2cnn3ccc(N4CCN(C)CC4)nc23)C1` [Example 166, 4-methyl-3-((1-(5-(4-methylpiperazin-1-yl)pyrazolo[1,5-a]pyrimidin-3-yl)azetidin-3-yl)oxy)-N-(5-(trifluoromethyl)pyridin-3-yl)benzamide], the Ki at DDR1 is below 5 nM; at DDR2, 5 to 25 nM.
For `Cc1ccn2ncc(N3CC(Oc4cc(C(=O)Nc5cncc(C(F)(F)F)c5)ccc4C)C3)c2n1` [Example 167, 4-methyl-3-((1-(5-methylpyrazolo[1,5-a]pyrimidin-3-yl)azetidin-3-yl)oxy)-N-(5-(trifluoromethyl)pyridin-3-yl)benzamide], in that order: below 5 nM and 5 to 25 nM.
In the same order, the values of `Cc1ccc(C(=O)Nc2cncc(C(F)(F)F)c2)cc1OC1CN(c2cnn3ccccc23)C1` [Example 168, 4-methyl-3-((1-(pyrazolo[1,5-a]pyridin-3-yl)azetidin-3-yl)oxy)-N-(5-(trifluoromethyl)pyridin-3-yl)benzamide] are below 5 nM and below 5 nM.
For `Cc1ccc(C(=O)Nc2cncc(C(F)(F)F)c2)cc1OC1CN(c2cncc3c2cnn3C)C1` [Example 169, 4-methyl-3-((1-(1-methyl-1H-pyrazolo[3,4-c]pyridin-4-yl)azetidin-3-yl)oxy)-N-(5-(trifluoromethyl)pyridin-3-yl)benzamide], in that order: below 5 nM and 5 to 25 nM.
Take `Cc1ccc(C(=O)Nc2cncc(C(F)(F)F)c2)cc1OC1CN(c2cnn3ccc(N4CCOCC4)nc23)C1` [Example 170, 4-methyl-3-((1-(5-morpholinopyrazolo[1,5-a]pyrimidin-3-yl)azetidin-3-yl)oxy)-N-(5-(trifluoromethyl)pyridin-3-yl)benzamide]: the Ki on DDR1 is below 5 nM; on DDR2 it was 5 to 25 nM.
For `Cc1ccc(C(=O)Nc2cncc(C(F)(F)F)c2)cc1CC1CN(c2cnn3ccncc23)C1` [Example 171, 4-methyl-3-((1-(pyrazolo[1,5-a]pyrazin-3-yl)azetidin-3-yl)methyl)-N-(5-(trifluoromethyl)pyridin-3-yl)benzamide], in that order: below 5 nM and below 5 nM.
In the same order, the values of `Cc1ccc(C(=O)Nc2cncc(C(F)(F)F)c2)cc1C(C)C1CN(c2cnn3ccncc23)C1` (centres unmarked) [Example 172, 4-methyl-3-(1-(1-(pyrazolo[1,5-a]pyrazin-3-yl)azetidin-3-yl)ethyl)-N-(5-(trifluoromethyl)pyridin-3-yl)benzamide] are below 5 nM and 5 to 25 nM.
For `Cc1ccc(C(=O)Nc2cncc(C(F)(F)F)c2)cc1OC1CN(c2ncnc3[nH]cc(C#N)c23)C1` [Example 173, 3-((1-(5-cyano-7H-pyrrolo[2,3-d]pyrimidin-4-yl)azetidin-3-yl)oxy)-4-methyl-N-(5-(trifluoromethyl)pyridin-3-yl)benzamide], in that order: below 5 nM and 5 to 25 nM.
Turning to `Cc1ccc(C(=O)Nc2cncc(C(F)(F)F)c2)cc1OC1CN(c2cnccc2C#N)C1` [Example 174, 3-((1-(4-cyanopyridin-3-yl)azetidin-3-yl)oxy)-4-methyl-N-(5-(trifluoromethyl)pyridin-3-yl)benzamide], the inhibitory constant (Ki) at DDR1 and on DDR2 was below 5 nM each time.
Regarding `Cc1ccc(C(=O)Nc2cncc(C(F)(F)F)c2)cc1SC1CN(c2cnn3ccncc23)C1` [Example 178, 4-methyl-3-((1-(pyrazolo[1,5-a]pyrazin-3-yl)azetidin-3-yl)thio)-N-(5-(trifluoromethyl)pyridin-3-yl)benzamide], the Ki at DDR1 and at DDR2 was below 5 nM in each case.
Consider `Cc1ccc(C(=O)Nc2cncc(C(F)(F)F)c2)cc1S(=O)(=O)C1CN(c2cnn3ccncc23)C1` [Example 179, 4-methyl-3-((1-(pyrazolo[1,5-a]pyrazin-3-yl)azetidin-3-yl)sulfonyl)-N-(5-(trifluoromethyl)pyridin-3-yl)benzamide], for which the Ki on DDR1 fell in the range of 5 to 25 nM; on DDR2, 25 to 100 nM.
For `Cc1ccc(C(=O)Nc2cncc(C(F)(F)F)c2)cc1OC1CN(c2cnn3ccc(N4CCC(CO)CC4)nc23)C1` [Example 180, 3-((1-(5-(4-(hydroxymethyl)piperidin-1-yl)pyrazolo[1,5-a]pyrimidin-3-yl)azetidin-3-yl)oxy)-4-methyl-N-(5-(trifluoromethyl)pyridin-3-yl)benzamide], in that order: 5 to 25 nM and above 100 nM.
For `O=C(Nc1cncc(C(F)(F)F)c1)c1ccc(OC(F)F)c(NC2CN(c3cnn4ccncc34)C2)c1` [Example 181, 4-(difluoromethoxy)-3-((1-(pyrazolo[1,5-a]pyrazin-3-yl)azetidin-3-yl)amino)-N-(5-(trifluoromethyl)pyridin-3-yl)benzamide], in that order: below 5 nM and 5 to 25 nM.
As to `O=C(Nc1cncc(C(F)(F)F)c1)c1ccc(OC(F)F)c(OC2CN(c3cnn4ccncc34)C2)c1` [Example 182, 4-(difluoromethoxy)-3-((1-(pyrazolo[1,5-a]pyrazin-3-yl)azetidin-3-yl)oxy)-N-(5-(trifluoromethyl)pyridin-3-yl)benzamide], the Ki at DDR1 and on DDR2 was below 5 nM each time.
For the molecule `COc1ccc(C(=O)Nc2cncc(C(F)(F)F)c2)cc1NC1CN(c2cnn3ccncc23)C1` [Example 183, 4-methoxy-3-((1-(pyrazolo[1,5-a]pyrazin-3-yl)azetidin-3-yl)amino)-N-(5-(trifluoromethyl)pyridin-3-yl)benzamide], the Ki was below 5 nM at DDR1 and 5 to 25 nM at DDR2.
In the case of `Cc1ccc(C(=O)Nc2cncc(C(F)(F)F)c2)cc1C1CN(c2cnn3ccncc23)C1` [Example 184, 4-methyl-3-(1-(pyrazolo[1,5-a]pyrazin-3-yl)azetidin-3-yl)-N-(5-(trifluoromethyl)pyridin-3-yl)benzamide], the Ki on DDR1 is below 5 nM; on DDR2, 5 to 25 nM.

Values taken from patent US20260028328A1, “HETEROARYL DERIVATIVES AS DDRs INHIBITORS” (CHIESI FARMACEUTICI S.P.A., priority 2022, published 2026).
